Experimental findings from US8329704B2, “Substituted pyrazinone derivatives for use in MCH-1 mediated diseases” (Janssen Pharmaceutica, N.V., priority 2005, dated 2012) are described below.

T1 sequence (Q99705 whole entry): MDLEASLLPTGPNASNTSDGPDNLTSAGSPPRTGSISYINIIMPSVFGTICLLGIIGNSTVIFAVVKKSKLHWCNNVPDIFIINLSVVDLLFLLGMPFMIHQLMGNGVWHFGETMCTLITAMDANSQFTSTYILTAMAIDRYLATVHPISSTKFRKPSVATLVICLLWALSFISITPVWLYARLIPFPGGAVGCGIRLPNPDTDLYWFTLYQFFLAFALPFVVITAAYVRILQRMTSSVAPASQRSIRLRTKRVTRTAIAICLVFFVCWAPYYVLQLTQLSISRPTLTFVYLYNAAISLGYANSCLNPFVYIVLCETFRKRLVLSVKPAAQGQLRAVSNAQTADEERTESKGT

This assay addresses T1, human MCH-1 receptor (Homo sapiens, UniProt Q99705).
T1 construct: expressed in transfected cells
The assay is described as follows: Ca2+ mobilization experiment for the MCH-1 receptor (FLIPR), inhibition of MCH-induced Ca2+ mobilization. Format: cell-based. Conditions: CHO cells stably expressing human MCH-1 receptor, inhibition of MCH-induced Ca2+ response, read-out: MCH-1 pIC50 (converted). The procedure:
The interaction of the compounds of Formula (I) with MCH-1 receptors was assessed in in vitro transient calcium (Ca^2+) mobilization assays in the fluorimetric imaging plate reader (FLIPR) format (Sullivan et al. 1999, Methods Mol Biol 114:125-133). In general, the natural agonist (MCH) is incubated with cells expressing the MCH-1 receptor, which elicits a concentration-dependent transient mobilization of Ca^2+ from internal stores. The interaction of the test compounds with the receptor is assessed in competition experiments. Various concentrations of the test compound are added to the incubation mixture containing the receptor-expressing cells and a submaximal concentration of MCH. The test compound in proportion to its antagonist potency and its concentration inhibits MCH-induced Ca^2+ mobilization.
Chinese Hamster ovary cells (CHO) stably expressing the human MCH-1 receptor are grown in a 1:1 mixture of Dulbecco's Modified Eagles Medium (DMEM) and HAM's F12 medium including Glutamax™ (Invitrogen), supplemented with 10% heat-inactivated fetal bovine serum and 400 μg/ml geneticin.
Twenty-four hours before the experiment, MCH-1 receptor-expressing CHO cells are seeded in 20 μl (5,000 cells per well) into 384-well black wall, clear bottom microtiter plates (Costar). On the day of the experiment, 20 μl per well calcium assay kit containing 10 mM probenicide (Molecular Devices) is added. Cells are loaded for 90 min at 37° C. and 5% CO2 in a cell culture incubator. After loading, 20 μl of serial dilutions of the test compound are added and cells are further incubated for 20 min at room temperature in the dark. After 20 min, 20 μl of a submaximal MCH concentration is added and changes in intracellular calcium are recorded directly in a FLIPR III apparatus (Molecular devices).
Data from assays in the presence of compound were calculated as a percentage of total Ca^2+-responses measured in the absence of test compound. Inhibition curves, plotting percent of total Ca^2+-responses versus the log value of the concentration of the test compound, were automatically generated, and sigmoidal inhibition curves were fitted using non-linear regression. The pIC50 values of test compounds were derived from individual curves.
(Calcium flux is commonly read through the fluorescence of an indicator in the cells.)
On to `CC(C)(C)OC(=O)N1CCN(c2ccc(-n3ccnc(NCCc4ccccc4)c3=O)cc2)CC1` [3-07], for which the IC50 is 501 nM.

In the case of `O=c1c(NCCOc2ccccc2)nccn1-c1ccc(OCCN2CCC(O)C2)cc1` (stereo not drawn) [1-36], the IC50 was 316 nM.

For the compound `CN(C1CCN(c2ccc(-n3ccnc(NCCOc4ccccc4)c3=O)cc2)C1)S(C)(=O)=O` (stereo not drawn) [1-05], the IC50 is greater than 10000 nM.

For the compound `COc1cc(-n2ccnc(NCCc3ccc(C(F)(F)F)cc3)c2=O)ccc1OCCN1CCCC1` [2-34], the IC50 was 100 nM.

As to `O=c1c(NCCc2ccccc2)nccn1-c1ccc(N2CCNCC2)c(Cl)c1` [3-77], the IC50 is 100 nM.

For the compound `COc1cc(-n2ccnc(NCCc3ccccc3)c2=O)ccc1NCCN1CCCC1` [3-28], the IC50 was 126 nM.

For `CN(C)CCN1CCc2cc(-n3ccnc(NCCOc4ccccc4)c3=O)ccc21` [3-84], the IC50 is 79.4 nM.

With `COc1cc(-n2ccnc(NCCc3cccc(Br)c3)c2=O)ccc1OCCN1CCCC1` [2-20], the IC50 is 31.6 nM.

For `CCCN(C)C1CCN(c2ccc(-n3ccnc(NCCc4ccccc4)c3=O)cc2OC)C1` (stereo not drawn) [3-15], the IC50 is 50.1 nM.

Take `O=c1c(NCCOc2ccccc2)nccn1-c1ccc(OCCN(CCO)Cc2ccccc2)cc1` [1-33]: the IC50 is 794 nM.

Take `COc1cc(-n2ccnc(NCCc3ccccc3)c2=O)ccc1OCCN(C)CCO` [3-37]: the IC50 is 50.1 nM.

On to `COc1cc(-n2ccnc(NCCc3ccccc3Br)c2=O)ccc1OCCN1CCCC1` [2-19], for which the IC50 was 316 nM.

Consider `COc1cc(-n2ccnc(NCCOc3ccccc3)c2=O)ccc1N1CCC(O)C1` (stereo not drawn) [1-08], for which the IC50 is 398 nM.

For `O=c1c(NCCc2ccccc2)nccn1-c1ccc(OCCN2CCCC2)cc1` [2-02], the IC50 was 126 nM.

With `CCCC(=O)N(C)CCOc1ccc(-n2ccnc(NCCOc3ccccc3)c2=O)cc1OC` [1-62], the IC50 was 50.1 nM.

Regarding `COc1cc(-n2ccnc(NCCc3ccccc3)c2=O)ccc1N1CCC(N(C)C2CC2)C1` (stereo not drawn) [3-17], the IC50 was 79.4 nM.

In the case of `COc1cc(-n2ccnc(NCCOc3ccc(Cl)cc3Cl)c2=O)ccc1OCCN1CCCC1` [2-40], the IC50 is 200 nM.

For the compound `COCC(=O)N(C)CCOc1ccc(-n2ccnc(NCCOc3ccccc3)c2=O)cc1OC` [1-64], the IC50 was 100 nM.

With `O=c1c(NCCOc2ccccc2)nccn1-c1ccc(OCCN2CCCCC2)cc1` [1-38], the IC50 was 1580 nM.

In the case of `COc1cc(-n2ccnc(NCCOc3ccccc3)c2=O)ccc1OCCNC1CC1` [1-59], the IC50 was 63.1 nM.

Take `COc1cc(-n2ccnc(NCCc3ccccc3)c2=O)ccc1OCCN1C(C)COCC1C` (stereo not drawn) [3-62]: the IC50 was 39.8 nM.

Take `COc1ccc(CCNc2nccn(-c3ccc(OCCN4CCCC4)c(OC)c3)c2=O)cc1Cl` [2-42]: the IC50 was 251 nM.

On to `O=c1c(NCCOc2ccccc2)nccn1-c1ccc(OCCCN2CCCC2)cc1` [1-46], for which the IC50 was 3160 nM.

For `COc1cc(-n2ccnc(NCCOc3ccccc3)c2=O)ccc1OCCN1CCOCC1` [1-74], the IC50 is 79.4 nM.

Take `CC(=O)N(C)C1CCN(c2ccc(-n3ccnc(NCCOc4ccccc4)c3=O)cc2)C1` (stereo not drawn) [1-02]: the IC50 is 251 nM.

Turning to `CNCCOc1ccc(-n2ccnc(NCCOc3ccccc3)c2=O)cc1` [1-23], the IC50 is 1260 nM.

Regarding `COc1cccc(C2CCN(c3nccn(-c4ccc(OCCN5CCCC5)c(OC)c4)c3=O)C2)c1` (stereo not drawn) [4-07], the IC50 is 631 nM.

For `COc1cc(-n2ccnc(CCCc3ccccc3)c2=O)ccc1OCCN1CCCC1` [2-01], the IC50 is 126 nM.

`COc1cc(-n2ccnc(NCCc3ccccc3)c2=O)ccc1OCCNC(C)=O` [3-38]: the IC50 was 63.1 nM.

`COc1cc(-n2ccnc(NCCOc3ccccc3)c2=O)ccc1OC1CNC1` [1-57]: the IC50 was 63.1 nM.

Regarding `O=c1c(NCCOc2ccccc2)nccn1-c1ccc(NCCN2CCCC2)cc1` [1-20], the IC50 was 200 nM.

`COc1cc(-n2ccnc(NCCCOc3ccccc3)c2=O)ccc1OCCN(C)C(C)=O` [7-03]: the IC50 is 31.6 nM.

For `O=c1c(NCCc2ccc(F)cc2)nccn1-c1ccc(OCCN2CCCC2)cc1` [2-15], the IC50 is 63.1 nM.
